Where two headings read alike, the source gives them in different places.
Assays:
[1] = system: most yeasts; conditions: cited from earlier work
[2] = Stability of buffered natamycin solutions on storage, HPLC (Example 1); type: physicochemical; conditions: for amount of natamycin after storage (HPLC): 24 hours at 21° C.
Procedure: (§1) • An ethanolic aqueous solution having a pH of 12.8 was prepared by mixing 60 ml of a 0.04 N sodium hydroxide solution and 40 ml of 96% ethanol. • While stirring vigorously, 1 g of natamycin was added. The natamycin dissolved within 2 minutes. • Immediately after dissolution, the obtained concentrated natamycin solution was added to 20 l of a 0.01 M citrate buffer solution. A solution containing 57 ppm of natamycin and 0.2% of ethanol with a pH of 6.5 was obtained. • In a similar manner, a solution containing 101 ppm of natamycin and 0.4% of ethanol and a solution containing 202 ppm of natamycin and 0.8% of ethanol was obtained by adding the concentrated natamycin solution to […] of a 0.01 M citrate buffer respectively. Preparation of the Natamycin Solutions (2)
Stability of the Solutions • The amount of natamycin in the compositions (1) was determined after 24 hours storage at 21° C. The amount of natamycin was determined using well-known methods (HPLC) and shown to be 57, 97 and 196 ppm respectively. Hardly any loss of activity was observed after 9 days storage at 6° C. The concentration of natamycin was 49, 100 and 170 ppm respectively. Even after storage for 9 days at 21° C., the concentration of natamycin of the composition containing 101 ppm at t=0 was 99 ppm.

[3] = Dissolution of natamycin when preparing solutions, with controls (Example 1); type: physicochemical
Procedure: as §1
Controls • 1 g of natamycin was added to a neutral ethanolic aqueous system containing up to 40% of ethanol.

[4] = cited from earlier work
[5] = system: most foodborne fungi; conditions: cited from earlier work
[6] = Stability of non-buffered natamycin solutions on storage (Example 2); type: physicochemical
Procedure: This Example describes the rapid preparation of a stable aqueous composition of natamycin in a non-buffered aqueous system with enhanced solubility. • A concentrated natamycin solution was prepared as described in Example 1 (1). • However, after diluting the concentrated natamycin solution in water, the pH was adjusted to 6.4-6.6 using HCL. Finally, solutions containing 101 and 202 ppm of natamycin were obtained. • The amount of natamycin in the compositions was determined after 24 hours storage at 21° C. The concentration of natamycin was 99 and 192 ppm respectively. Hardly any loss of activity was observed after 9 days storage at 6° C. The concentration of natamycin was 98 and 198 ppm respectively. Even after storage for 9 days at 21° C. the concentration of natamycin in the composition containing 101 ppm at t=0 was 82 ppm. […] The amount of dissolved natamycin of these solutions is at least 6 times higher than the maximum solubility in water at the same pH values

Q: For `C[C@@H]1C/C=C/C=C/C=C/C=C/[C@H](O[C@@H]2O[C@H](C)[C@@H](O)[C@H](N)[C@@H]2O)C[C@@H]2O[C@](O)(C[C@@H](O)C[C@H]3O[C@@H]3/C=C/C(=O)O1)C[C@H](O)[C@H]2C(=O)O` [natamycin], which minimal inhibitory concentration [1] is on record?
A: less than 5 ppm

Q: What about the “amount of dissolved natamycin relative to maximum solubility in water at the same pH” value ([2]; Example 1 buffered solutions) of the same compound?
A: at least 6 times

Q: And the “amount of natamycin after storage (HPLC)” value ([2]; solution with 57 ppm at t=0, 0.2% ethanol, citrate buffer pH 6.5)?
A: 57 ppm

Q: And the “concentration of natamycin after storage” value ([2]; solution with 57 ppm at t=0, 0.2% ethanol, citrate buffer, 9 days at 6° C.)?
A: 49 ppm

Q: What about the “amount of natamycin after storage (HPLC)” value ([2]; solution with 101 ppm at t=0, 0.4% ethanol, citrate buffer) of the same compound?
A: 97 ppm

Q: What about the “concentration of natamycin after storage” value ([2]; solution with 101 ppm at t=0, 0.4% ethanol, citrate buffer, 9 days at 6° C.) of the same compound?
A: 100 ppm

Q: And the “concentration of natamycin after storage” value ([2]; solution with 101 ppm at t=0, citrate buffer, 9 days at 21° C.)?
A: 99 ppm

Q: And the “amount of natamycin after storage (HPLC)” value ([2]; solution with 202 ppm at t=0, 0.8% ethanol, citrate buffer)?
A: 196 ppm

Q: And the “concentration of natamycin after storage” value ([2]; solution with 202 ppm at t=0, 0.8% ethanol, citrate buffer, 9 days at 6° C.)?
A: 170 ppm

Q: And the time to dissolve ([3]; 1 g natamycin in 100 ml ethanolic aqueous solution of pH 12.8 (0.04 N NaOH / 96% ethanol 60:40), vigorous stirring)?
A: ≤ 2 min

Q: And the “dissolution (control)” value ([3]; 1 g natamycin in neutral ethanolic aqueous system containing up to 40% ethanol, a few hours of stirring)?
A: not fully dissolved

Q: And the “dissolution (control)” value ([3]; 200 ppm natamycin in buffered aqueous system, solvent not present)?
A: did not dissolve

Q: And the “dissolution (control)” value ([3]; 200 ppm natamycin, solvent present, without first raising the pH to 12.8)?
A: did not dissolve

Q: What about the “dissolution (control)” value ([3]; same procedure as Example 1 without adding a solvent) of the same compound?
A: did not dissolve

Q: What about the maximum solubility ([4]; acetone/water (4:1) system) of the same compound?
A: 110 ppm

Q: And the solubility ([4]; ethanol/water (4:1) system)?
A: 220 ppm

Q: And the solubility ([4]; pure ethanol)?
A: 40 ppm

Q: And the solubility in water ([4]; water at neutral pH levels)?
A: 30 ppm

Q: And the minimal inhibitory concentration [5]?
A: less than 10 ppm

Q: What about the “amount of dissolved natamycin relative to maximum solubility in water at the same pH” value ([6]; Example 2 non-buffered solutions) of the same compound?
A: at least 6 times

Q: What about the “concentration of natamycin after storage” value ([6]; non-buffered solution with 101 ppm at t=0, pH 6.4-6.6 (HCl), 24 hours at 21° C.) of the same compound?
A: 99 ppm

Q: What about the “concentration of natamycin after storage” value ([6]; non-buffered solution with 101 ppm at t=0, 9 days at 6° C.) of the same compound?
A: 98 ppm

Q: What about the “concentration of natamycin after storage” value ([6]; non-buffered solution with 101 ppm at t=0, 9 days at 21° C.) of the same compound?
A: 82 ppm

Q: And the “concentration of natamycin after storage” value ([6]; non-buffered solution with 202 ppm at t=0, pH 6.4-6.6 (HCl), 24 hours at 21° C.)?
A: 192 ppm

Q: What about the “concentration of natamycin after storage” value ([6]; non-buffered solution with 202 ppm at t=0, 9 days at 6° C.) of the same compound?
A: 198 ppm

Source: patent US7816332B2, “Stable aqueous solution of natamycin fungicide” (DSM IP Assets B.V., priority 2003, dated 2010)
